Reference: the OligoGym collection
Where “and” joins values, the source holds several entries; their conditions need not be identical. Identical values can stand only once. After the bases stand the sugars from the 5' end (letter, count) and the backbone: PS all phosphorothioate, else s phosphorothioate and o phosphodiester by linkage. Methylation of C is not given here. [mop] = methoxypropylphosphonate linkage; e = 2'-O-(2-methoxyethyl) (MOE); k = constrained ethyl (cEt); d = 2'-deoxy (DNA)

Tests used:
KRAS = details: ASO
IRF5 = details: ASO

Sequence | target mRNA inhibition (KRAS; A431, 2 µM) | target mRNA inhibition (IRF5; KARPAS-229, 4 µM) | other results
AGATTGTGCTGAGCTT (sugars kkddddddddddkeke, PS) | 40% |  | 
TTGATTTGTCAGCAGG (sugars k3 d10 k3, PS) | 65% and 66% and 74% |  | target mRNA inhibition (KRAS; A431, 0.185 µM): 41%; target mRNA inhibition (KRAS; A431, 0.556 µM): 60%; target mRNA inhibition (KRAS; A431, 1.667 µM): 77%; target mRNA inhibition (KRAS; A431, 5 µM): 87%
ACCATTCAAAGTTCAC (sugars kkkddddddddkekek, PS) | 26% |  | 
AGTCCAGTGATACTTT (sugars k3 d10 k3, PS) | 8% |  | 
TCTCTATGAAAGCTCA (sugars k3 d10 k3, PS) | 50% |  | target mRNA inhibition (KRAS; A431, 0.037 µM): 61%; target mRNA inhibition (KRAS; A431, 5 µM): 96% and 92%; target mRNA inhibition (KRAS; NCI-H460, 0.037 µM): 49.7%
GCTGTGAAACTCTCTA (sugars kkddddddddkekekk, PS) | 16% |  | 
CATTGTTTAAAAAAAA (sugars k3 d10 k3, PS) | 0% |  | 
AATTAATCCATTTATG (sugars k3 d10 k3, PS) | 16% |  | 
GATTGTGCTGAGCTTG (sugars k3 d10 k3, PS) | 63% |  | 
AGGTAAAAGCTAACAG (sugars k3 d10 k3, PS) | 41% |  | target mRNA inhibition (KRAS; A431, 0.037 µM): 46%; target mRNA inhibition (KRAS; NCI-H460, 0.037 µM): 37.3%
TACTAGTATGCCTTAA (sugars k3 d10 k3, PS) | 16% |  | 
TAGTGATTAGGTCAAA (sugars k3 d10 k3, PS) | 21% |  | 
TCCATTTATGTGACTA (sugars k3 d9 k3 e1, PS) | 23% |  | 
ATCTTATGGTTAGGGG (sugars k3 d10 k3, PS) | 20% |  | 
ATGTAAATATAGCCCC (sugars k3 d10 k3, PS) | 28% |  | 
AATTACTTATGCAGAG (sugars k3 d10 k3, PS) | 44% |  | 
TAGTGATTAGGTCAAA (sugars kkdddddddddkekek, PS) | 51% |  | 
AAAGCTATTAGGAGTC (sugars k3 d10 k3, PS) | 65% |  | 
AAAAAAAATTAATGTC (sugars k3 d10 k3, PS) | 14% |  | 
TGATTTGTCAGCAGGA (sugars k3 d10 k3, PS) | 59% |  | target mRNA inhibition (KRAS; A431, 0.185 µM): 19% and 0%; target mRNA inhibition (KRAS; A431, 0.556 µM): 58% and 36%; target mRNA inhibition (KRAS; A431, 1.667 µM): 72% and 58%; target mRNA inhibition (KRAS; A431, 5 µM): 81% and 74%
CCATTCAAAGTTCACA (sugars kkddddddddkekekk, PS) | 57% |  | target mRNA inhibition (KRAS; A431, 0.185 µM): 0%; target mRNA inhibition (KRAS; A431, 0.556 µM): 19%; target mRNA inhibition (KRAS; A431, 1.667 µM): 31%; target mRNA inhibition (KRAS; A431, 5 µM): 39%
GTGTTTATGCAATGTT (sugars k3 d10 k3, PS) |  |  | target mRNA inhibition (KRAS; A431, 0.125 µM): 83%; target mRNA inhibition (KRAS; A431, 0.185 µM): 31%; target mRNA inhibition (KRAS; A431, 0.556 µM): 52%; target mRNA inhibition (KRAS; A431, 1.667 µM): 77%; target mRNA inhibition (KRAS; A431, 5 µM): 89%; target mRNA inhibition (KRAS; NCI-H460, 0.037 µM): 76.8%

Sequence | target mRNA inhibition (KRAS; A431, 2 µM) | target mRNA inhibition (IRF5; KARPAS-229, 4 µM) | other results
CTTGATTTGTCAGCAG (sugars kddddddddddkekek, PS) | 45% |  | target mRNA inhibition (KRAS; A431, 0.037 µM): 62%
AGGAGTCTTTATAGTA (sugars kkdddddddddkekek, PS) | 31% |  | 
TATTAGGAGTCTTTAT (sugars k3 d10 k3, PS) | 13% |  | 
TAATAATCCCCATTTC (sugars k3 d10 k3, PS) | 9% |  | 
ATGACTAATAGCAGTG (sugars k3 d10 k3, PS) | 49% |  | 
CTGAATTAGTCTCCAT (sugars k3 d10 k3, PS) | 48% |  | 
AAATCTTATGGTTAGG (sugars k3 d10 k3, PS) | 34% |  | 
TTAGTGATTAGGTCAA (sugars kkddddddddddkeke, PS) | 22% |  | 
TTGATTTGTCAGCAGG (sugars kkkdddddddddkeke, PS) | 40% |  | 
GTTTATGCAATGTTAA (sugars k3 d10 k3, PS) | 55% |  | 
TGTAGGGCATTTCTGA (sugars k3 d10 k3, PS) | 0% |  | 
TCTTGACCTCCCGCTG (sugars kkddddddddkekekk, PS) |  | 19% | 
CATTCCATATACACAC (sugars kkddddddddddkeke, PS) |  | 30% | 
CCCAATGCAACATCCA (sugars kkkdddddddddkeke, PS) |  | 0% | 
CTGATATGATACCTAA (sugars k3 d10 k3, linkages s5 [mop]1 s9) |  |  | target mRNA inhibition (IRF5; A-431, 0.00412 µM): 0%; target mRNA inhibition (IRF5; A-431, 0.01225 µM): 15%; target mRNA inhibition (IRF5; A-431, 0.03704 µM): 25%; target mRNA inhibition (IRF5; A-431, 0.11111 µM): 54%; target mRNA inhibition (IRF5; A-431, 0.33333 µM): 71%; target mRNA inhibition (IRF5; A-431, 1 µM): 71%
GGTGTATTTCCCTGTC (sugars kkddddddddddkeke, PS) |  | 21% | 
AGGAAGTGAGTCTCAA (sugars k3 d9 k3 e1, PS) |  | 47% | 
TGAGTCTCAAACCAGG (sugars kkdddddddddkdkdk, PS) |  | 0% | 
TCCAATTTTGCATTCC (sugars kekdddddddddeekk, PS) |  | 78% and 76% | target mRNA inhibition (IRF5; KARPAS-229, 0.44444 µM): 42%; target mRNA inhibition (IRF5; KARPAS-229, 1.33333 µM): 68%; target mRNA inhibition (IRF5; KARPAS-229, 12 µM): 82%
TTATTTCTGCTCCAGG (sugars k3 d9 k3 e1, PS) |  | 28% | 
GGTCTGGCCCTTTTGG (sugars kkkddddddddkekek, PS) |  | 2% | 
TTGTCTAGTGTCATGG (sugars kkddddddddddkeke, PS) |  | 38% | 

Sequence | target mRNA inhibition (KRAS; A431, 2 µM) | target mRNA inhibition (IRF5; KARPAS-229, 4 µM) | other results
CCAATTTTGCATTCCA (sugars k3 d9 k3 e1, PS) |  |  | target mRNA inhibition (IRF5; KARPAS-229, 0.44444 µM): 61% and 54% and 62%; target mRNA inhibition (IRF5; KARPAS-229, 1.33333 µM): 79% and 75% and 82%; target mRNA inhibition (IRF5; KARPAS-229, 12 µM): 88% and 91%
GGTCTGGCCCTTTTGG (sugars k3 d10 k3, PS) |  | 16% | 
CCAATGCAACATCCAT (sugars k3 d9 k3 e1, PS) |  | 16% | 
AGTCATGGGCGTGAGGC (sugars kkddddddddkekekkd, PS) |  | 17% | 
ACGAGTTATGGGAAGG (sugars k3 d10 k3, PS) |  | 74% and 73% | target mRNA inhibition (IRF5; KARPAS-229, 0.44444 µM): 50%; target mRNA inhibition (IRF5; KARPAS-229, 1.33333 µM): 54%; target mRNA inhibition (IRF5; KARPAS-229, 12 µM): 81%
GGTTCTTGGACTCTCA (sugars k3 d10 k3, PS) |  |  | target mRNA inhibition (IRF5; KARPAS-229, 0.44444 µM): 52% and 54%; target mRNA inhibition (IRF5; KARPAS-229, 1.33333 µM): 65% and 72%; target mRNA inhibition (IRF5; KARPAS-229, 12 µM): 86% and 82%
AGGAAGTGAGTCTCAA (sugars k3 d10 k3, PS) |  | 42% | 
GTTCTTGGACTCTCAA (sugars kddddddddddkekek, PS) |  | 35% | 
CACTGACACAGGCGGA (sugars kdddddddddkekeke, PS) |  | 0% | 
GTGTATTTCCCTGTCT (sugars k2 d9 e3 k2, PS) |  | 16% | 
TTAAGGGCACAGCGCA (sugars k3 d10 k3, PS) |  | 0% | 
GTCTTTGAGGTCTGGG (sugars kkddddddddkekekk, PS) |  | 34% | 
TTGTCTAGTGTCATGG (sugars k3 d10 k3, PS) |  | 60% and 70% | target mRNA inhibition (IRF5; KARPAS-229, 0.44444 µM): 37%; target mRNA inhibition (IRF5; KARPAS-229, 12 µM): 84%
GAGTGAGACGAGCAAA (sugars k3 d10 k3, PS) |  | 27% | 
GGTGTATTTCCCTGTC (sugars k3 d10 k3, PS) |  |  | target mRNA inhibition (IRF5; KARPAS-229, 0.44444 µM): 32% and 25%; target mRNA inhibition (IRF5; KARPAS-229, 1.33333 µM): 38% and 56%; target mRNA inhibition (IRF5; KARPAS-229, 12 µM): 69% and 67%
ACCATTCTATGCCTTT (sugars kkdddddddddkekek, PS) |  | 40% | 
CACTGACACAGGCGGA (sugars k3 d9 k3 e1, PS) |  | 0% | 
ATAGGAGTGAGACGAG (sugars k3 d10 k3, PS) |  | 16% | 
GCTTGGTCTTGACCTC (sugars k3 d9 k3 e1, PS) |  | 29% | 
GCTGTCACATCTCCAC (sugars kkdddddddddkekek, PS) |  | 5% | 
TTGAATTTTGTGACTG (sugars k3 d10 k3, PS) |  | 45% | 
AGGAAGTGAGTCTCAA (sugars kkkddddddddkekek, PS) |  | 24% | 

Sequence | target mRNA inhibition (KRAS; A431, 2 µM) | target mRNA inhibition (IRF5; KARPAS-229, 4 µM) | other results
GCATTCCATATACACA (sugars kkkdddddddddkeke, PS) |  | 45% | 
TAATAGGAGTGAGACG (sugars k3 d10 k3, PS) |  | 12% | 
GCTTGGTCTTGACCTC (sugars kkdddddddddkdkdk, PS) |  | 11% | 
TTATTTCTGCTCCAGG (sugars kkddddddddkekekk, PS) |  | 0% | 
TCCAATTTTGCATTCC (sugars kdddddddddkekeke, PS) |  | 6% | 
ACTGTATTACCTATAC (sugars k3 d10 k3, PS) |  | 22% | 
AGGAGTGAGACGAGCA (sugars kddddddddddkekek, PS) |  | 37% | 
ACGAGCAAAGGGTGAG (sugars k3 d10 k3, PS) |  | 47% | 
CTTCTGCAGGGAGTCA (sugars kkddddddddddkeke, PS) |  | 8% | 
TGTCTAGTGTCATGGA (sugars k2 d8 e4 k2, PS) |  | 54% | 
CAATTTTGCATTCCAT (sugars kddddddddddkekek, PS) |  | 21% | 
CAATTTTGCATTCCAT (sugars kdddddddddkekeke, PS) |  | 19% | 
GTTCTTGGACTCTCAA (sugars kkddddddddkekekk, PS) |  | 0% | 
ATTTCTGCTCCAGGTT (sugars kddddddddddkekek, PS) |  | 39% | 
CACATCTCCACATCAG (sugars k3 d9 k3 e1, PS) |  | 25% | 
TTATCTCCGTCCTGGC (sugars kkkddddddddkekek, PS) |  | 0% | 
TCACCACTGTGTACCC (sugars k3 d9 k3 e1, PS) |  | 21% | 
CGGTCTTTGAGGTCTG (sugars kekdddddddddeekk, PS) |  | 49% | 
TTGTCTAGTGTCATGG (sugars kekdddddddddeekk, PS) |  | 55% | 
TCTGATATGATACCTA (sugars k3 d2 k1 d7 k3, PS) |  |  | target mRNA inhibition (IRF5; A-431, 0.00412 µM): 4%; target mRNA inhibition (IRF5; A-431, 0.01225 µM): 8%; target mRNA inhibition (IRF5; A-431, 0.03704 µM): 36%; target mRNA inhibition (IRF5; A-431, 0.11111 µM): 54%; target mRNA inhibition (IRF5; A-431, 0.33333 µM): 69%; target mRNA inhibition (IRF5; A-431, 1 µM): 74%
